# Reference: PubChem BioAssay (NCI)
# “And” between values parts separate entries of the source, which are not always exact repeats. Equal values may be shown once.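 Five concentrations, 48 hours, 96-well plates. The concentration for 50% growth inhibition is given as GI50. TGI is the concentration that stops growth completely.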
# Tests used:
# Test in all cases: growth of human tumour cells (NCI), 48 h
# 786-0 renal = system: 786-0 renal
# A498 renal = system: A498 renal
# A549 NSCLC = system: A549 NSCLC
# ACHN renal = system: ACHN renal
# CAKI-1 renal = system: CAKI-1 renal
# CCRF-CEM leukemia = system: CCRF-CEM leukemia
# COLO 205 colon = system: COLO 205 colon
# DLD-1 colon = system: DLD-1 colon
# DMS 114 small cell lung = system: DMS 114 small cell lung
# DMS 273 small cell lung = system: DMS 273 small cell lung
# DU-145 prostate = system: DU-145 prostate
# EKVX NSCLC = system: EKVX NSCLC
# HCC-2998 colon = system: HCC-2998 colon
# HCT-116 colon = system: HCT-116 colon
# HL-60(TB) leukemia = system: HL-60(TB) leukemia
# HOP-18 NSCLC = system: HOP-18 NSCLC
# HOP-62 NSCLC = system: HOP-62 NSCLC
# HOP-92 NSCLC = system: HOP-92 NSCLC
# HS 578T breast = system: HS 578T breast
# HT29 colon = system: HT29 colon
# IGROV1 ovarian = system: IGROV1 ovarian
# K-562 leukemia = system: K-562 leukemia
# KM12 colon = system: KM12 colon
# KM20L2 colon = system: KM20L2 colon
# LXFL 529 NSCLC = system: LXFL 529 NSCLC
# MALME-3M melanoma = system: MALME-3M melanoma
# MDA-MB-231 breast = system: MDA-MB-231 breast
# MDA-MB-435 = system: MDA-MB-435
# MDA-N = system: MDA-N
# MOLT-4 leukemia = system: MOLT-4 leukemia
# NCI-H226 lung = system: NCI-H226 lung
# NCI-H460 lung = system: NCI-H460 lung
# NCI-H522 lung = system: NCI-H522 lung
# NCI/ADR-RES ovarian = system: NCI/ADR-RES ovarian
# OVCAR-3 ovarian = system: OVCAR-3 ovarian
# OVCAR-4 ovarian = system: OVCAR-4 ovarian
# OVCAR-5 ovarian = system: OVCAR-5 ovarian
# OVCAR-8 ovarian = system: OVCAR-8 ovarian
# PC-3 prostate = system: PC-3 prostate
# RXF-631 renal = system: RXF-631 renal
# SF-268 CNS = system: SF-268 CNS
# SF-295 CNS = system: SF-295 CNS
# SF-539 CNS = system: SF-539 CNS
# SK-MEL-2 melanoma = system: SK-MEL-2 melanoma
# SNB-19 CNS = system: SNB-19 CNS
# SNB-78 CNS = system: SNB-78 CNS
# SW-620 colon = system: SW-620 colon
# T-47D breast = system: T-47D breast
# TK-10 renal = system: TK-10 renal
# U251 CNS = system: U251 CNS
# UACC-257 melanoma = system: UACC-257 melanoma
# UACC-62 melanoma = system: UACC-62 melanoma
# XF 498 CNS = system: XF 498 CNS
structure (smiles),measurement,setting,value
CN1C(=O)CC2(C)c3cc(O)ccc3N(C)C12 (configuration not stated),GI50,786-0 renal,23.8 µM
same,TGI,786-0 renal,58.1 µM and 28.6 µM
same,GI50,A498 renal,> 75 µM
same,TGI,A498 renal,> 75 µM and 68.2 µM
same,TGI,A549 NSCLC,75 µM and > 100 µM
same,GI50,ACHN renal,25.6 µM
same,TGI,ACHN renal,75 µM and > 100 µM
same,GI50,CAKI-1 renal,32.4 µM
same,TGI,CAKI-1 renal,63.5 µM and > 100 µM
same,GI50,CCRF-CEM leukemia,9.66 µM
same,TGI,CCRF-CEM leukemia,40.8 µM and 62.7 µM
same,GI50,COLO 205 colon,24.1 µM
same,TGI,COLO 205 colon,75 µM and 63.1 µM
same,TGI,DLD-1 colon,> 100 µM
same,TGI,DMS 114 small cell lung,> 100 µM
same,TGI,DMS 273 small cell lung,> 100 µM
same,GI50,DU-145 prostate,> 75 µM
same,TGI,DU-145 prostate,> 75 µM
same,GI50,EKVX NSCLC,> 75 µM
same,TGI,EKVX NSCLC,> 75 µM and 44.2 µM
same,GI50,HCC-2998 colon,> 75 µM
same,TGI,HCC-2998 colon,> 100 µM
same,GI50,HCT-116 colon,22.8 µM
same,TGI,HCT-116 colon,51.8 µM and 42.1 µM
same,GI50,HL-60(TB) leukemia,14.2 µM
same,TGI,HL-60(TB) leukemia,31.5 µM and 70 µM
same,TGI,HOP-18 NSCLC,> 100 µM
same,TGI,HOP-62 NSCLC,60.7 µM
same,GI50,HOP-92 NSCLC,18.4 µM
same,TGI,HOP-92 NSCLC,57.9 µM and > 95.9 µM
same,GI50,HS 578T breast,23.7 µM
same,TGI,HS 578T breast,69.3 µM and > 90.2 µM
same,GI50,HT29 colon,21.4 µM
same,TGI,HT29 colon,64.5 µM and 51 µM
same,TGI,IGROV1 ovarian,75 µM and 68.8 µM
same,GI50,K-562 leukemia,11.6 µM
same,TGI,K-562 leukemia,31.3 µM and 70.8 µM
same,GI50,KM12 colon,42.6 µM
same,TGI,KM12 colon,75 µM and 42.7 µM
same,TGI,KM20L2 colon,> 100 µM
same,TGI,LXFL 529 NSCLC,> 59.2 µM
same,GI50,MALME-3M melanoma,> 75 µM
same,TGI,MALME-3M melanoma,> 75 µM and 93.5 µM
same,TGI,MDA-MB-231 breast,40.6 µM and 34.1 µM
same,GI50,MDA-MB-435,9.51 µM
same,TGI,MDA-MB-435,19.7 µM and 28.4 µM
same,GI50,MDA-N,12.9 µM
same,TGI,MDA-N,25.7 µM and 31.7 µM
same,TGI,MOLT-4 leukemia,44.7 µM and 40.1 µM
same,GI50,NCI-H226 lung,19.5 µM
same,TGI,NCI-H226 lung,54.4 µM and 71.9 µM
same,GI50,NCI-H460 lung,13.9 µM
same,TGI,NCI-H460 lung,26 µM and > 82.3 µM
same,GI50,NCI-H522 lung,15.6 µM
same,TGI,NCI-H522 lung,33.2 µM and 60 µM
same,GI50,NCI/ADR-RES ovarian,17.2 µM
same,TGI,NCI/ADR-RES ovarian,75 µM and 34.3 µM
same,GI50,OVCAR-3 ovarian,16.1 µM
same,TGI,OVCAR-3 ovarian,32 µM and 30.9 µM
same,TGI,OVCAR-4 ovarian,10.6 µM
same,TGI,OVCAR-5 ovarian,59.6 µM
same,TGI,OVCAR-8 ovarian,61.4 µM
same,GI50,PC-3 prostate,> 75 µM
same,TGI,PC-3 prostate,> 100 µM
same,TGI,RXF-631 renal,> 100 µM
same,GI50,SF-268 CNS,38.6 µM
same,TGI,SF-268 CNS,75 µM and 60.6 µM
same,GI50,SF-295 CNS,13 µM
same,TGI,SF-295 CNS,23.7 µM and 54.9 µM
same,GI50,SF-539 CNS,14.5 µM
same,TGI,SF-539 CNS,26.9 µM and > 76.5 µM
same,GI50,SK-MEL-2 melanoma,> 75 µM
same,TGI,SK-MEL-2 melanoma,> 94.3 µM
same,GI50,SNB-19 CNS,> 75 µM
same,TGI,SNB-19 CNS,> 75 µM and 68.1 µM
same,TGI,SNB-78 CNS,> 100 µM
same,GI50,SW-620 colon,13.9 µM
same,TGI,SW-620 colon,28.9 µM and 42.6 µM
same,GI50,T-47D breast,> 75 µM
same,TGI,T-47D breast,> 91.2 µM
same,GI50,TK-10 renal,> 75 µM
same,TGI,TK-10 renal,> 100 µM
same,GI50,U251 CNS,14.4 µM
same,TGI,U251 CNS,25 µM and 31.2 µM
same,TGI,UACC-257 melanoma,> 85.9 µM
same,TGI,UACC-62 melanoma,38.6 µM and 45.5 µM
same,TGI,XF 498 CNS,33 µM
